For the experiment, the target named is T1, hVR1 (Homo sapiens, UniProt Q8NER1).
T1 construct: expressed in transfected cells; host or cells: HEK293
In words: Human VR1 (hVR1) Functional Assay (FLIPR intracellular calcium, capsaicin challenge). The experiment is classed as cell-based. Conditions: capsaicin 0.030 μM, HEK293 cells expressing hVR1; for inhibition at 1 µM: test concentration 1 μM.

A value given as a limit tells only on which side of the number the result lay.

T1 sequence (Q8NER1 whole entry): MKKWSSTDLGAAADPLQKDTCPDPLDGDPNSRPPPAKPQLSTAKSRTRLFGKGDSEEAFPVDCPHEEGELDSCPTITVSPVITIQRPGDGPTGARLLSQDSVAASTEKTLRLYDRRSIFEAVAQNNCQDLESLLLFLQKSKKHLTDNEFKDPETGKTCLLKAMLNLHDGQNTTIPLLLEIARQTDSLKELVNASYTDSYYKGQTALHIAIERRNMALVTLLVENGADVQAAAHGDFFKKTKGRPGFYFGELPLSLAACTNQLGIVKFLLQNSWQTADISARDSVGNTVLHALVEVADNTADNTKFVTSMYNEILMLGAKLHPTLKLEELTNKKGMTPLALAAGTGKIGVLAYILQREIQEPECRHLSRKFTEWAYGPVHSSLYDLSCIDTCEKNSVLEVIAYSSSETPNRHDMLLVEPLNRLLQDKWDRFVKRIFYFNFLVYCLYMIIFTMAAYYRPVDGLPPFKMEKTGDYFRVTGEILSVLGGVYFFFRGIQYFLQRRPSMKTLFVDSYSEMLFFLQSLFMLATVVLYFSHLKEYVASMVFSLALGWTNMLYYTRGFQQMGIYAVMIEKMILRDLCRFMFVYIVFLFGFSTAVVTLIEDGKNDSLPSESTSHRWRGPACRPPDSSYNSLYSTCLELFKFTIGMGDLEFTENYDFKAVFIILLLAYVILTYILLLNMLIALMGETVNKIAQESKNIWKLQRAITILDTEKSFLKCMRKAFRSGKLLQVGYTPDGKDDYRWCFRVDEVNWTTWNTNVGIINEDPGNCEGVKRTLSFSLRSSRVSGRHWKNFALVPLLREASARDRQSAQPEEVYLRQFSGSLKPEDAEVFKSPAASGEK

As for `COc1ccc(C2CC2c2nc3cc(-c4ccccc4C(C)(C)O)ccc3[nH]2)cc1` (centres unmarked) [Cpd 494, 2-(2-{2-[2-(4-methoxy-phenyl)-cyclopropyl]-1H-benzimidazol-5-yl}-phenyl)-propan-2-ol], the IC50 – broadly, the midpoint of a concentration-inhibition curve – was 52 nM and the inhibition (commonly the change of the read-out against control, counted positive when it falls) at 1 µM is 93%. As to `CCOC(=O)c1ccccc1-c1ccc2[nH]c(/C=C/c3ccc(C(F)(F)F)cc3)nc2c1` [Cpd 466, (E)-2-{2-[2-(4-trifluoromethyl-phenyl)-vinyl]-1H-benzimidazol-5-yl}-benzoic acid ethyl ester], the IC50 turned out to be 71 nM and the inhibition at 1 µM turned out to be 98%. Take `NS(=O)(=O)c1ccccc1-c1ccc2[nH]c(/C=C/c3cc(C(F)(F)F)ccc3C(F)(F)F)nc2c1` [Cpd 374, (E)-2-{2-[2-(2,5-bis-trifluoromethyl-phenyl)-vinyl]-1H-benzimidazol-5-yl}-benzenesulfonamide]: the IC50 is 34 nM and the inhibition at 1 µM turned out to be 99%. Turning to `NS(=O)(=O)c1ccccc1-c1ccc2[nH]c(CCc3ccc(F)cc3F)nc2c1` [Cpd 392, 2-{2-[2-(2,4-difluoro-phenyl)-ethyl]-1H-benzimidazol-5-yl}-benzenesulfonamide], the IC50 was found to be 10 nM and the inhibition at 1 µM is 97%. For `NS(=O)(=O)c1ccccc1-c1ccc2[nH]c(CCc3ccc(OC(F)(F)F)cc3)nc2c1` [Cpd 129, 2-{2-[2-(4-trifluoromethoxy-phenyl)-ethyl]-1H-benzimidazol-5-yl}-benzenesulfonamide] the same measures were 34 nM and 96%. For `NS(=O)(=O)c1ccccc1-c1ccc2[nH]c(CCc3ccccc3F)nc2c1` [Cpd 419, 2-{2-[2-(2-fluoro-phenyl)-ethyl]-1H-benzimidazol-5-yl}-benzenesulfonamide], the IC50 worked out at 32 nM and the inhibition at 1 µM was determined as 93%. For `CC(O)c1ccccc1-c1ccc2[nH]c(/C=C/c3ccc(S(=O)(=O)C(F)(F)F)cc3)nc2c1` (centres unmarked) [Cpd 45, (E)-1-(2-{2-[2-(4-trifluoromethanesulfonyl-phenyl)-vinyl]-1H-benzimidazol-5-yl}-phenyl)-ethanol] the same measures were 16 nM and 100%.

For the compound `O=S(=O)(c1ccc(/C=C/c2nc3cc(-c4ccccc4CO)ccc3[nH]2)cc1)C(F)(F)F` [Cpd 42, (E)-(2-{2-[2-(4-trifluoromethanesulfonyl-phenyl)-vinyl]-1H-benzimidazol-5-yl}-phenyl)-methanol], the IC50 turned out to be 22 nM and the inhibition at 1 µM is 100%. As for `CNS(=O)(=O)c1ccccc1-c1ccc2[nH]c(/C=C/c3ccc(Cl)cc3S(C)(=O)=O)nc2c1` [Cpd 340, (E)-2-{2-[2-(4-chloro-2-methanesulfonyl-phenyl)-vinyl]-1H-benzimidazol-5-yl}-N-methyl-benzenesulfonamide], the IC50 turned out to be 62 nM and the inhibition at 1 µM stood at 98%. In the case of `CS(=O)(=O)Nc1ccccc1-c1ccc2[nH]c(/C=C/c3ccc(-c4ccccc4)cc3)nc2c1` [Cpd 475, (E)-N-{2-[2-(2-biphenyl-4-yl-vinyl)-1H-benzimidazol-5-yl]-phenyl}-methanesulfonamide], the IC50 was 77 nM. `CC(C)(C)c1ccc(/C=C/c2nc3cc(-c4ccccc4N)ccc3[nH]2)cc1` [Cpd 11, (E)-2-{2-[2-(4-tert-butyl-phenyl)-vinyl]-1H-benzimidazol-5-yl}-phenylamine]: the IC50 turned out to be 210 nM and the inhibition at 1 µM was 100%.

Consider `O=S(=O)(c1ccc(/C=C/c2nc3cc(-c4ccccc4O)ccc3[nH]2)cc1)C(F)(F)F` [Cpd 41, (E)-2-{2-[2-(4-trifluoromethanesulfonyl-phenyl)-vinyl]-1H-benzimidazol-5-yl}-phenol], for which the IC50 came to 280 nM and the inhibition at 1 µM stood at 90%. In the case of `Nc1ccccc1-c1ccc2[nH]c(/C=C/c3ccc(C(F)(F)F)cc3)nc2c1` [Cpd 465, (E)-2-{2-[2-(4-trifluoromethyl-phenyl)-vinyl]-1H-benzimidazol-5-yl}-phenylamine], the IC50 is 363 nM and the inhibition at 1 µM was found to be 75%.

Regarding `CNS(=O)(=O)c1ccccc1-c1ccc2[nH]c(/C=C/c3cc(F)ccc3F)nc2c1` [Cpd 326, (E)-2-{2-[2-(2,5-difluoro-phenyl)-vinyl]-1H-benzimidazol-5-yl}-N-methyl-benzenesulfonamide], the IC50 worked out at 157 nM and the inhibition at 1 µM stood at 89%. For `OCc1ccccc1-c1ccc2[nH]c(C3CC3c3ccc(C(F)(F)F)cc3)nc2c1` (centres unmarked) [Cpd 474, (2-{2-[2-(4-trifluoromethyl-phenyl)-cyclopropyl]-1H-benzimidazol-5-yl}-phenyl)-methanol], the IC50 is more than 500 nM. With `NS(=O)(=O)c1ccccc1-c1ccc2[nH]c(CCc3cc(F)c(F)cc3F)nc2c1` [Cpd 385, 2-{2-[2-(2,4,5-trifluoro-phenyl)-ethyl]-1H-benzimidazol-5-yl}-benzenesulfonamide], the IC50 came to 21 nM and the inhibition at 1 µM stood at 97%.

As for `CC(C)(O)c1ccccc1-c1ccc2[nH]c(C3CC3c3ccc(C(F)(F)F)cc3)nc2c1` (centres unmarked) [Cpd 471, 2-(2-{2-[2-(4-trifluoromethyl-phenyl)-cyclopropyl]-1H-benzimidazol-5-yl}-phenyl)-propan-2-ol], the concentration for half-maximal inhibition (IC50) turned out to be 10 nM and the inhibition at 1 µM worked out at 100%. Take `NS(=O)(=O)c1ccccc1-c1ccc2[nH]c(CCc3ccccc3Cl)nc2c1` [Cpd 402, 2-{2-[2-(2-chloro-phenyl)-ethyl]-1H-benzimidazol-5-yl}-benzenesulfonamide]: the IC50 worked out at 38 nM and the inhibition at 1 µM came to 93%. Turning to `CC(=O)c1ccccc1-c1ccc2[nH]c(/C=C/c3ccc(OC(F)(F)F)cc3)nc2c1` [Cpd 20, (E)-1-(2-{2-[2-(4-trifluoromethoxy-phenyl)-vinyl]-1H-benzimidazol-5-yl}-phenyl)-ethanone], the IC50 was 320 nM.

On to `CNS(=O)(=O)c1ccccc1-c1ccc2[nH]c(/C=C/c3ccc(F)c(Br)c3)nc2c1` [Cpd 317, (E)-2-{2-[2-(3-bromo-4-fluoro-phenyl)-vinyl]-1H-benzimidazol-5-yl}-N-methyl-benzenesulfonamide], for which the IC50 was found to be 11 nM and the inhibition at 1 µM stood at 101%. As for `CC(=O)c1ccc(/C=C/c2nc3cc(-c4ccccc4C(C)(C)O)ccc3[nH]2)cc1` [Cpd 448, (E)-1-[4-(2-{5-[2-(1-hydroxy-1-methyl-ethyl)-phenyl]-1H-benzimidazol-2-yl}-vinyl)-phenyl]-ethanone], the IC50 amounted to 17 nM and the inhibition at 1 µM worked out at 99%. Taken in the same sequence, the figures for `CNS(=O)(=O)c1ccccc1-c1ccc2[nH]c(/C=C/c3c(F)cccc3Cl)nc2c1` [Cpd 336, (E)-2-{2-[2-(2-chloro-6-fluoro-phenyl)-vinyl]-1H-benzimidazol-5-yl}-N-methyl-benzenesulfonamide] were 240 nM and 89%.

For the compound `NS(=O)(=O)c1ccccc1-c1ccc2[nH]c(C#Cc3ccccc3)nc2c1` [Cpd 490, 2-(2-phenylethynyl-1H-benzimidazol-5-yl)-benzenesulfonamide], the IC50 amounted to 26 nM and the inhibition at 1 µM came to 99%. For `O=S(=O)(c1ccc(/C=C/c2nc3cc(-c4ccccc4C(F)(F)F)ccc3[nH]2)cc1)C(F)(F)F` [Cpd 481, (E)-2-[2-(4-trifluoromethanesulfonyl-phenyl)-vinyl]-5-(2-trifluoromethyl-phenyl)-1H-benzimidazole], the inhibition at 1 µM stood at 42%. For the compound `NS(=O)(=O)c1ccccc1-c1ccc2[nH]c(C3CC3c3ccc(C(F)(F)F)cc3)nc2c1` (centres unmarked) [Cpd 190, 2-{2-[2-(4-trifluoromethyl-phenyl)-cyclopropyl]-1H-benzimidazol-5-yl}-benzenesulfonamide], the half-inhibitory concentration (IC50) turned out to be 38 nM and the inhibition at 1 µM is 94%. Regarding `CC(=O)Nc1ccccc1-c1ccc2[nH]c(CCc3ccc(C(F)(F)F)cc3)nc2c1` [Cpd 457, N-(2-{2-[2-(4-trifluoromethyl-phenyl)-ethyl]-1H-benzimidazol-5-yl}-phenyl)-acetamide], the inhibition at 1 µM was found to be 22%. In the case of `NS(=O)(=O)c1ccc(C(F)(F)F)cc1-c1ccc2[nH]c(CCc3ccc(C(F)(F)F)cc3)nc2c1` [Cpd 445, 4-trifluoromethyl-2-{2-[2-(4-trifluoromethyl-phenyl)-ethyl]-1H-benzimidazol-5-yl}-benzenesulfonamide], the IC50 was found to be 20 nM and the inhibition at 1 µM worked out at 96%. Take `CNS(=O)(=O)c1ccccc1-c1ccc2[nH]c(/C=C/c3cc(F)c(F)cc3F)nc2c1` [Cpd 324, (E)-N-methyl-2-{2-[2-(2,4,5-trifluoro-phenyl)-vinyl]-1H-benzimidazol-5-yl}-benzenesulfonamide]: the IC50 is 33 nM and the inhibition at 1 µM is 98%.

Turning to `CNS(=O)(=O)c1ccccc1-c1ccc2[nH]c(/C=C/c3cccc(C(F)(F)F)c3F)nc2c1` [Cpd 332, (E)-2-{2-[2-(2-fluoro-3-trifluoromethyl-phenyl)-vinyl]-1H-benzimidazol-5-yl}-N-methyl-benzenesulfonamide], the IC50 was 49 nM and the inhibition at 1 µM worked out at 98%. In the case of `NS(=O)(=O)c1ccccc1-c1ccc2[nH]c(/C=C/c3c(F)cccc3F)nc2c1` [Cpd 372, (E)-2-{2-[2-(2,6-difluoro-phenyl)-vinyl]-1H-benzimidazol-5-yl}-benzenesulfonamide], the IC50 turned out to be 71 nM and the inhibition at 1 µM is 97%.

As to `NS(=O)(=O)c1ccccc1-c1ccc2[nH]c(/C=C/c3ccc(C(F)(F)F)c(F)c3)nc2c1` [Cpd 423, (E)-2-{2-[2-(3-fluoro-4-trifluoromethyl-phenyl)-vinyl]-1H-benzimidazol-5-yl}-benzenesulfonamide], the IC50 was 11 nM and the inhibition at 1 µM turned out to be 99%. Taken in the same sequence, the figures for `CC(C)(O)c1ccccc1-c1ccc2[nH]c(/C=C/c3ccccc3)nc2c1` [Cpd 468, (E)-2-[2-(2-styryl-1H-benzimidazol-5-yl)-phenyl]-propan-2-ol] were 8 nM and 97%.

The values above are taken from US7951829B2, “Benzimidazole modulators of VR1” (Janssen Pharmaceutica NV, priority 2006, dated 2011).
